In general, MIC refers to the lowest concentration that inhibits growth of the organism.

Drawing on patent publication US9090667B2, “Cyclic peptide from Nonomuraea sp., process for the production thereof, and pharmaceutical composition for the prevention or treatment of mycobacteria related disease comprising the same” (priority 2011, dated 2015), this text covers MIC for two compounds.

Test [1] deals with M. tuberculosis strain resistant to rifampin (RMP).
Test [2] has as its system M. tuberculosis strain resistant to isoniazid (INH).
Test [3] deals with M. tuberculosis strain resistant to moxifloxacin (Mox).
The test system of test [4] is M. tuberculosis strain resistant to streptomycin (SM).
Test [5] deals with M. tuberculosis strain resistant to kanamycin (KM).
Test [6] deals with M. tuberculosis strain resistant to cycloserine (CS).
The test system of test [7] is M. tuberculosis strain resistant to capreomycin (CAP).

In brackets after ≈: the same amount, converted by molar mass. Numbered stars: 1 amine (or outer) side, 2 acyl side, 3 side chain; on linkers, the order of the positions; unused ones are H or OH. Bridge positions count the residues as written; N and C are the ends. Square brackets hold non-standard residues; d marks the D form. Peptide text beside a SMILES is read from it. * marks the point of attachment. ξ: configuration not given here. NMeTrp(4-OMe) = CN[CH](Cc1c[nH]c2cccc(OC)c12)C(=O)O; X1 = O=C(C(N[*:1])C(O)c1ccccc1)[*:2]; NMeI = CC[CH](C)[CH](NC)C(=O)O; ξNMe2Val = CC(C)C(C(=O)*)N(C)C; NMeT = CN[CH](C(=O)O)[CH](C)O; NMeL = CN[CH](CC(C)C)C(=O)O; NMeV = CN[CH](C(=O)O)C(C)C

Turning to `CCC(C)C(C(=O)NC1C(=O)N(C)C(C(C)O)C(=O)NC(C(C)C)C(=O)N(C)C(CC(C)C)C(=O)NC(C(C)C)C(=O)N(C)C(C(C)C)C(=O)N(C)C(Cc2c[nH]c3cccc(OC)c23)C(=O)NC(C(C)C)C(=O)NC(C(O)c2ccccc2)C(=O)NC(C(C)C)C(=O)OC1C)N(C)C(=O)C(NC(=O)C(C(C)C)N(C)C)C(C)C` (centres unmarked) [H-14] (ξNMe2Val-V[NMeI]T[NMeT]V[NMeL]V[NMeV][NMeTrp(4-OMe)]V[X1]V; ester 3-C; configuration not given here), the minimal inhibitory concentration (MIC) is 0.19 µM (≈ 0.304 µg/mL) in test [1]; under 0.12 µM in test [2]; 0.31 µM (≈ 0.496 µg/mL) in test [3]; under 0.12 µM in test [4]; under 0.12 µM in test [5]; under 0.12 µM in test [6]. Moreover, in test [7], the MIC turned out to be 0.29 µM (≈ 0.464 µg/mL).

As for `CCC(C)C(C(=O)NC1C(=O)N(C)C(C(C)O)C(=O)NC(C(C)C)C(=O)N(C)C(CC(C)C)C(=O)NC(C(C)C)C(=O)N(C)C(C(C)C)C(=O)N(C)C(Cc2c[nH]c3cccc(OC)c23)C(=O)NC(C(C)C)C(=O)NC(Cc2ccccc2)C(=O)NC(C(C)C)C(=O)OC1C)N(C)C(=O)C(NC(=O)C(C(C)C)N(C)C)C(C)C` (centres unmarked) [H-16] (ξNMe2Val-V[NMeI]T[NMeT]V[NMeL]V[NMeV][NMeTrp(4-OMe)]VFV; ester 3-C; configuration not given here), the MIC in test [1] was 0.18 µM (≈ 0.285 µg/mL); in test [2], under 0.12 µM; in test [3], 0.3 µM (≈ 0.475 µg/mL); in test [4], under 0.12 µM; in test [5], under 0.12 µM; in test [6] it was under 0.12 µM. The minimal inhibitory concentration (MIC) in test [7] stood at 0.3 µM (≈ 0.475 µg/mL).
